This is an account of results in EPA's ToxValDB 9.5 (doi:10.2903/j.efsa.2010.1828).

Where only a bound is given, the exact number is not on record here.

The subject of data set [1] is Aphidius rhopalosiphi. Put plainly: LR50; higher = less toxic. The conditions noted are these: not reported; mortality.
Data set [2] deals with Tagia sp. Conditions: acute; duration: 14 days; mortality.
The test system of data set [3] is Colinus virginianus. The conditions noted are these: acute; oral; mortality.
For data set [4], the system named is Macromiidae. The conditions noted are these: acute; duration: 72 hours; growth.
Data set [5] relates to Coturnix japonica. The conditions noted are these: reproduction developmental; duration: 8 weeks; reproduction.
The subject of data set [6] is Oncorhynchus mykiss.
Data set [7] concerns Folsomia candida. The conditions noted are these: chronic/long-term; duration: 28 days.
Data set [8] relates to Rattus norvegicus.
Data set [9] has as its system Bird. Conditions: short-term; oral; feed; mortality.
The test system of data set [10] is Apis mellifera. The conditions noted are these: acute; duration: 48 hours; oral; unspecified; mortality.
In data set [11] the test system is Bibionidae. The conditions noted are these: chronic/long-term; duration: 26 days; other.
Data set [12] relates to Daphnia magna. The conditions noted are these: chronic/long-term; duration: 21 days; growth.

Usually NOAEL stands for the highest tested level that showed no adverse finding. `O=C(Nc1ccccc1)N(Cc1ccc(Cl)cc1)C1CCCC1` [Pencycuron] gave an LR50 in [1] of 685 g/ha. Moreover, the LC50 was > 10000 mg/kg in data set [2]; > 0.3 µg/mL in [6] (acute, duration: 96 hours, mortality); > 1750 mg/kg-day in data set [9]. The LD50 is > 2000 mg/kg in data set [3]; > 5000 mg/kg in data set [8] (acute, oral, mortality); > 98.5 µg/piece in data set [10]. The NOEC was > 0.3 mg/L in data set [4]; 0.0832 mg/L in data set [6] (chronic/long-term, duration: 94 days, growth); 60 mg/kg in [7]; ≥ 0.3 mg/L in [11]; 0.0496 mg/L in data set [12]. Moreover, the NOEL in data set [5] is ≥ 122 mg/kg-day. Moreover, the NOAEL in [8] (chronic, duration: 2 years) worked out at 18 mg/kg-day; in data set [8] (reproduction developmental, body weight), 32 mg/kg-day.
